Reference: US6903086B2, “Alkoxycarbonylamino benzoic acid or alkoxycarbonylamino tetrazolyl phenyl derivatives as IP antagonists” (SYNTEX (U.S.A.) LLC, priority 2001, dated 2005)

SMILES | melting point
O=C(Nc1ccc(-c2ccccc2)cc1C(=O)O)OCc1cc2cc(-c3ccccc3)ccc2o1 [compound 10, 4-(5-phenyl-benzofuran-2-ylmethoxycarbonylamino)-biphenyl-3-carboxylic acid] | 225.9 to 226.2 °C
O=C(Nc1cc(-c2ccccc2)ccc1C(=O)O)OCc1cc2cc(-c3ccccc3)ccc2o1 [compound 11, 3-(5-phenyl-benzofuran-2-ylmethoxycarbonylamino)-biphenyl-4-carboxylic acid] | 229.5 to 230 °C
O=C(Nc1ccc(-c2ccc(F)cc2)cc1C(=O)O)OCc1cc2cc(-c3ccccc3)ccc2o1 [compound 12, 4′-fluoro-4-(5-phenyl-benzofuran-2-ylmethoxycarbonylamino)-biphenyl-3-carboxylic acid] | 229.4 to 229.6 °C
O=C(Nc1ccc(-c2ccsc2)cc1C(=O)O)OCc1cc2cc(-c3ccccc3)ccc2o1 [compound 13, 2-(5-phenyl-benzofuran-2-ylmethoxycarbonylamino)-5-thiophen-3-yl-benzoic acid] | 229.5 to 230 °C
O=C(Nc1ccc(-c2ccc(F)cc2)cc1C(=O)O)OCc1cc2cc(-c3ccc(F)cc3)ccc2o1 [compound 14, 4′-fluoro-4-[5-(4-fluoro-phenyl)-benzofuran-2-ylmethoxycarbonylamino]-biphenyl-3-carboxylic acid] | 235.1 to 235.7 °C
O=C(Nc1ccc(-c2ccccc2)cc1C(=O)O)OCc1cc2cc(-c3ccc(F)cc3)ccc2o1 [compound 15, 4-[5-(4-fluoro-phenyl)-benzofuran-2-ylmethoxycarbonylamino]-biphenyl-3-carboxylic acid] | 231.3 to 231.6 °C
O=C(Nc1ccc(-c2cccnc2)cc1C(=O)O)OCc1cc2cc(-c3ccc(F)cc3)ccc2o1 [compound 16, 2-[5-(4-fluoro-phenyl)-benzofuran-2-ylmethoxycarbonylamino]-5-pyridin-3-yl-benzoic acid] | 225.7 to 229.3 °C
O=C(Nc1ccccc1C(=O)O)OCc1cc2cc(-c3ccccc3)ccc2o1 [compound 17, 2-(5-phenyl-benzofuran-2-ylmethoxycarbonylamino)-benzoic acid] | 203.6 to 203.8 °C
O=C(Nc1cc2ccccc2cc1C(=O)O)OCc1cc2cc(-c3ccccc3)ccc2o1 [compound 18, 3-(5-phenyl-benzofuran-2-ylmethoxycarbonylamino)-naphthalene-2-carboxylic acid] | 225.6 to 225.8 °C
O=C(Nc1ccc(Br)cc1C(=O)O)OCc1cc2cc(-c3ccccc3)ccc2o1 [compound 19, 5-bromo-2-(5-phenyl-benzofuran-2-ylmethoxycarbonylamino)-benzoic acid] | 221.2 to 222 °C
CS(=O)(=O)c1ccc(NC(=O)OCc2cc3cc(-c4ccccc4)ccc3o2)c(C(=O)O)c1 [compound 20, 5-methanesulfonyl-2-(5-phenyl-benzofuran-2-ylmethoxycarbonylamino)-benzoic acid] | 234 to 235 °C
N#Cc1ccc(NC(=O)OCc2cc3cc(-c4ccccc4)ccc3o2)c(C(=O)O)c1 [compound 21, 5-cyano-2-(5-phenyl-benzofuran-2-ylmethoxycarbonylamino)-benzoic acid] | 213.9 to 214.5 °C
O=C(Nc1c(Cl)cc(Cl)cc1C(=O)O)OCc1cc2cc(-c3ccc(F)cc3)ccc2o1 [compound 22, 3,5-dichloro-2-[5-(4-fluoro-phenyl)-benzofuran-2-ylmethoxycarbonylamino]-benzoic acid] | 177.7 to 178.5 °C
O=C(Nc1ccc(F)cc1C(=O)O)OCc1cc2cc(-c3ccc(F)cc3)ccc2o1 [compound 23, 5-fluoro-2-[5-(4-fluoro-phenyl)-benzofuran-2-ylmethoxycarbonylamino]-benzoic acid] | 210 to 211.9 °C
O=C(Nc1ccc(Cl)cc1C(=O)O)OCc1cc2cc(-c3ccc(F)cc3)ccc2o1 [compound 24, 5-chloro-2-[5-(4-fluoro-phenyl)-benzofuran-2-ylmethoxycarbonylamino]-benzoic acid] | 216.7 to 217.3 °C
O=C(Nc1cccc(Cl)c1C(=O)O)OCc1cc2cc(-c3ccc(F)cc3)ccc2o1 [compound 25, 2-chloro-6-[5-(4-fluoro-phenyl)-benzofuran-2-ylmethoxycarbonylamino]-benzoic acid] | 216.7 to 217.3 °C
O=C(Nc1ccc(Br)cc1C(=O)O)OCc1cc2cc(-c3ccc(F)cc3)ccc2o1 [compound 26, 5-bromo-2-[5-(4-fluoro-phenyl)-benzofuran-2-ylmethoxycarbonylamino]-benzoic acid] | 220.3 to 220.6 °C
Cc1cccc(NC(=O)OCc2cc3cc(-c4ccc(F)cc4)ccc3o2)c1C(=O)O [compound 27, 2-[5-(4-fluoro-phenyl)-benzofuran-2-ylmethoxycarbonylamino]-6-methyl-benzoic acid] | 176.1 to 178.8 °C
Cc1ccc(NC(=O)OCc2cc3cc(-c4ccc(F)cc4)ccc3o2)c(C(=O)O)c1 [compound 28, 2-[5-(4-fluoro-phenyl)-benzofuran-2-ylmethoxycarbonylamino]-5-methyl-benzoic acid] | 190.8 to 191.9 °C
COc1cccc(NC(=O)OCc2cc3cc(-c4ccc(F)cc4)ccc3o2)c1C(=O)O [compound 29, 2-[5-(4-fluoro-phenyl)-benzofuran-2-ylmethoxycarbonylamino]-6-methoxy-benzoic acid] | 160.5 to 164.3 °C
O=C(Nc1cccc([N+](=O)[O-])c1C(=O)O)OCc1cc2cc(-c3ccc(F)cc3)ccc2o1 [compound 30, 2-[5-(4-fluoro-phenyl)-benzofuran-2-ylmethoxycarbonylamino]-6-nitro-benzoic acid] | 191.5 to 191.9 °C
Cc1ccc(NC(=O)OCc2cc3cc(-c4ccsc4)ccc3o2)c(C(=O)O)c1 [compound 31, 5-methyl-2-(5-thiophen-3-yl-benzofuran-2-ylmethoxycarbonylamino)-benzoic acid] | 213.2 to 215.1 °C
O=C(Nc1ccc(-c2ccc(F)cc2)cc1C(=O)O)OCc1cc2cc(-c3ccsc3)ccc2o1 [compound 32, 4′-fluoro-4-(5-thiophen-3-yl-benzofuran-2-ylmethoxycarbonylamino)-biphenyl-3-carboxylic acid] | 213.2 to 215.1 °C
N#Cc1cccc(NC(=O)OCc2cc3cc(-c4ccc(F)cc4)ccc3o2)c1C(=O)O [compound 33, 2-cyano-6-[5-(4-fluoro-phenyl)-benzofuran-2-ylmethoxycarbonylamino]-benzoic acid] | 150 °C (dec.)
O=C(Nc1ccc(-c2ccc(F)cc2)cc1C(=O)O)OCc1cc2cc(-c3cccnc3)ccc2o1 [compound 34, 4′-fluoro-4-(5-pyridin-3-yl-benzofuran-2-ylmethoxycarbonylamino)-biphenyl-3-carboxylic acid] | 237.1 to 237.5 °C
Cc1ccc(NC(=O)OCc2cc3cc(-c4cccnc4)ccc3o2)c(C(=O)O)c1 [compound 35, 5-methyl-2-(5-pyridin-3-yl-benzofuran-2-ylmethoxycarbonylamino)-benzoic acid] | 200.1 to 200.4 °C
O=C(Nc1cccc(Cl)c1C(=O)O)OCc1cc2cc(-c3cccnc3)ccc2o1 [compound 36, 2-chloro-6-(5-pyridin-3-yl-benzofuran-2-ylmethoxycarbonylamino)-benzoic acid] | 172 to 174 °C
